{"source": "patent US9925222B2", "about": "“Gut barrier dysfunction treatment and prevention” (ALBERT EINSTEIN COLLEGE OF MEDICINE OF YESHIVA UNIVERSITY, priority 2012, dated 2018)", "key": {"mouse PXR (mPXR)": {"target": "T1, mouse PXR (mPXR) (Mus musculus, UniProt O54915)", "T1 construct": "expressed in transfected cells; host or cells: 293T cells", "T1 sequence (O54915 1-431)": "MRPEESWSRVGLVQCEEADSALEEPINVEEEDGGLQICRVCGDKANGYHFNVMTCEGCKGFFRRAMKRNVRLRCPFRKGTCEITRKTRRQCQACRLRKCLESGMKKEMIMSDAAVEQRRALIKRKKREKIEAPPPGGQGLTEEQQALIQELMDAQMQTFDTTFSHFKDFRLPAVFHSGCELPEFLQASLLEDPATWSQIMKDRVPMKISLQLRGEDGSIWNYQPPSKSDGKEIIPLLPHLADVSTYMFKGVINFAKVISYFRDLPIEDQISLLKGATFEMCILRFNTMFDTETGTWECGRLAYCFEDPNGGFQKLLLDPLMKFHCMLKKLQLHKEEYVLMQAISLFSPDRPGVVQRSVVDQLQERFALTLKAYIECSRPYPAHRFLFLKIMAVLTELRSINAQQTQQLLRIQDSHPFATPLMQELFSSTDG", "experiment": "In vitro transcription assay, PXR reporter gene (MRP2 luciferase) with mPXR expression plasmid in 293T cells", "type": "cell-based", "quoted_text": "These assays were performed in 293T cells as previously published (33). In brief, transient transfection by lipofectamine (Invitrogen) were carried out in 293T cells with plasmids expressing human PXR (hPXR), mouse PXR (mPXR), GAL4-FXR, GAL4-LXR, GAL4-PPARγ and mouse CAR (mCAR) with respective reporter plasmids (Tk-MRP2-luciferase, Tk-MH100-luciferase, CYP2B10-luciferase) and Renilla. […] The cells were harvested in passive lysis buffer (Promega) and luciferase activity was detected using the dualluciferase reporter assay system from Promega in 20 μl of cell lysate using the Turner Biosystems 20/20 n Luminometer. Assays were performed at least two independent times each in triplicates."}, "Tnf-α mRNA expression": {"system": "Tnf-α mRNA expression", "experiment": "KDO2-lipid A gut mucosal endotoxemia model with oral IPA, Tnf-α qPCR in jejunum apical enterocytes", "type": "in vivo", "details": "KDO2 200 μg/mice, oral IPA 20 mg/kg", "description": "2.0 μg of total RNA extracted from pooled apical enterocytes with TRIzolR (Invitrogen), were reverse transcribed with random hexamer primers and SuperScript™ III-RT enzyme (Invitrogen). Quantitative PCR (qPCR) reactions using TaqMan universal PCR master mix and TaqMan probes containing FAM as the 5′ reporter fluorochrome and tetramethylrhodamine (MGB) as the 3′ quencher fluorochrome, were performed in triplicate for each sample and analyzed on the ABI Prism 7900HT system. […]\nFor indomethacin induced mouse jejunitis model, a protocol published by Ettarh and Carr was modified by using a single intraperitoneal dose of indomethacin to reduce the toxicity in Pxr^−/− mice (17). […] Weights of individual jejunum sections were measured for quantitation of enteropooling (intestinal weight/length in mg/cm). […]"}}}
{"molecule": "O=C(O)CCc1c[nH]c2ccccc12", "note": "[IPA, indole-3-propionic acid]", "values": [{"measurement": "EC50", "setting": "mouse PXR (mPXR)", "result": 550, "unit": "nM"}, {"measurement": "Emax, mPXR transcription assay", "setting": "mouse PXR (mPXR)", "result": 18.84, "unit": "fold over control"}, {"measurement": "Decrease of epithelial Tnf mRNA expression", "setting": "Tnf-α mRNA expression; Pxr+/+ mice", "result": 3.73, "unit": "fold"}, {"measurement": "Decrease of epithelial Tnf mRNA expression", "setting": "Tnf-α mRNA expression; Pxr−/− mice", "result": 1.72, "unit": "fold"}]}
